Values of other authors in US6689384B2, “Stable pergolide mesylate and process for making same” (Teva Pharmaceuticals Industries Ltd., priority 2000, dated 2004).
Structures can show the parent of a compound that is named as a salt.

What was measured:
[1] = tested on: secretion of prolactin; conditions: in humans
[2] = tested on: serum concentrations of growth hormone; conditions: in humans
[3] = tested on: serum concentrations of luteinizing hormone; conditions: in humans
[4] = oral administration, 14C radio-labeled
[5] = tested on: plasma proteins

Row | Structure (SMILES) | secretion of prolactin [1] | serum concentrations of growth hormone [2] | serum concentrations of luteinizing hormone [3] | administered radioactivity recovered from expired CO2 [4] [%] | administered radioactivity recovered from the urine [4] | bound to plasma proteins [5]
1 | CCCN1CC(CSC)CC2c3cccc4[nH]cc(c34)CC21 (stereo not drawn) [Pergolide mesylate, 8(beta)-[(Methylthio)methyl]-6-propylergoline monomethanesulfonate] | inhibits | transient rise | decrease | ~5 | approximately 55% | 
2 | CCCN1C[C@H](CSC)C[C@@H]2c3cccc4[nH]cc(c34)C[C@H]21 [Pergolide] |  |  |  |  |  | approximately 90%
